Laboratory results: US20250154169A1, “COMPOUNDS AND METHODS FOR MODULATING SPLICING” (REMIX THERAPEUTICS INC., priority 2021, published 2025)
Like-named read-outs stand apart in the source and are kept apart here.

Experiments:
Type in all cases: cell-based, human
MYB mRNA = assay: Splicing RT-qPCR assay, MYB canonical (CJ) and alternative (AJ) junction mRNA; conditions: for AC50: read-out: MYB AJ (AC50, increase in alternative junction mRNA)
Outline: (§1)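 A673 or K562 cells were treated 24 h at 37 °C with an 11-point 3-fold compound dilution series (top 10 uM, DMSO ≤0.25%). Lysates went to one-step RT-qPCR measuring canonical (CJ) and alternative-exon (AJ) junction transcripts, normalized to GAPDH, GUSB or PPIA.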

HTT mRNA [1] = assay: Splicing RT-qPCR gene panel, HTT canonical junction (CJ) mRNA; conditions: Tables 4A/4B, read-out: HTT (IC50, decrease in CJ mRNA, gene panel)
Experimental: (§2) Compounds described herein were used to modulate RNA transcript abundance in cells. The expression of a target mRNA was measured by detecting the formation of an exon-exon junction in the canonical transcript (CJ). A compound mediated exon-inclusion event was detected by observing an increase in formation of a new junction with an alternative exon (AJ). Real-time qPCR assays were used to detect these splicing switches and interrogate the potency of various compounds towards different target genes. A high-throughput real time quantitative PCR (RT-qPCR) assay was developed to measure these two isoforms of the mRNA (CJ and AJ) for exemplary genes, such as HTT, SMN2, and MYB, together with a control housekeeping gene, GAPDH or GUSB or PPIA, used for normalization. Briefly, the A673 or K562 cell line was treated with various compounds described herein (e.g., compounds of Formula (I)). After treatment, the levels of the HTT, MYB, or SMN2 mRNA targets were determined from each sample of cell lysate by cDNA synthesis followed by qPCR.
(§3) The A673 cell line was cultured in DMEM with 10% FBS. Cells were diluted with full growth media and plated in a 96-well plate (15,000 cells in 100 ul media per well). The plate was incubated at 37° C. with 5% CO2 for 24 hours to allow cells to adhere. An 11-point 3-fold serial dilution of the compounds was made in DMSO then diluted in media in an intermediate plate. Compounds were transferred from the intermediate plate to the cell plate with the top dose at a final concentration of 10 uM in the well. Final DMSO concentration was kept at or below 0.25%. The cell plate was returned to the incubator at 37° C. with 5% CO2 for an additional 24 hours.
(§4) The K562 cell line was cultured in IMDM with 10% FBS. For K562, cells were diluted with full growth media and plated in either a 96-well plate (50,000 cells in 50 uL media per well) or a 384-well plate (8,000-40,000 cells in 45 uL media per well). An 11-point 3-fold serial dilution of the compounds were made in DMSO then diluted in media in an intermediate plate. Compound was transferred from the intermediate plate to the cell plate with the top dose at a final concentration of 10 uM in the well. Final DMSO concentration was kept at or below 0.25%. Final volume was 100 uL for 96-well plate and 50 uL for 384-well plate. The cell plate was then placed in an incubator at 37° C. with 5% CO2 for 24 hours.
(§5) The cells were then gently washed with 50 uL-100 uL cold PBS before proceeding to addition of lysis buffer. 30 uL-50 uL of room temperature lysis buffer with DNAse I (and optionally RNAsin) was added to each well. Cells were shaken/mixed thoroughly at room temperature for 5-10 minutes for lysis to take place and then 3 uL-5 uL of room temperature stop solution was added and wells were shaken/mixed again. After 2-5 minutes, the cell lysate plate was transferred to ice for RT-qPCR reaction setup. The lysates could also be frozen at −80° C. for later use.
(§6) In some cases, a direct lysis buffer was used. An appropriate volume of 3× lysis buffer (10 mM Tris, 150 mM NaCl, 1.5%-2.5% Igepal and 0.1-1 U/uL RNAsin, pH 7.4) was directly added to either K562 or A673 cells in media and mixed by pipetting 3 times. The plates were then incubated at room temperature with shaking/rocking for 20-50 minutes to allow for lysis to take place. After this time, the cell lysate plate was transferred to ice to set up for the RT-qPCR reactions. The lysates could also be frozen at −80° C. for later use.
(§7) To set up 10 uL RT-qPCR reactions, cell lysates were transferred to 384-well qPCR plates containing the master mix according to the table below. The plates were sealed, gently vortexed, and spun down before the run. The volumes were adjusted accordingly in some instances where the reaction was carried in 20 μL. The table below summarizes the components of the RT-qPCR reactions:
(§8) The RT-qPCR reaction was performed using a QuantStudio (ThermoFisher) under the following fast cycling conditions. […]

Target C mRNA = assay: Splicing RT-qPCR gene panel, Target C canonical junction (CJ) mRNA; conditions: Tables 4A/4B, read-out: Target C (IC50, decrease in CJ mRNA, gene panel)
Experimental: as §2, §3, §4, §5, §6, §7, §8

SMN2 mRNA = assay: Splicing RT-qPCR gene panel, SMN2 canonical junction (CJ) mRNA; conditions: Tables 4A/4B, read-out: SMN2 (IC50, decrease in CJ mRNA, gene panel)
Experimental: as §2, §3, §4, §5, §6, §7, §8

HTT mRNA [2] = assay: Splicing RT-qPCR assay, HTT canonical (CJ) and alternative (AJ) junction mRNA; conditions: Homo sapiens, A673 or K562 cells, 24 hours compound treatment; for IC50: 24 h, read-out: HTT CJ (IC50, decrease in canonical junction mRNA); for AC50: read-out: HTT AJ (AC50, increase in alternative junction mRNA)
Outline: as §1

[3] = Homo sapiens, Tables 4A/4B, canonical junction qPCR panel, read-out: MYB (IC50, decrease in CJ mRNA, gene panel)
[4] = Homo sapiens, 24 h, A673 or K562 cells, 24 hours compound treatment, RT-qPCR
[5] = Homo sapiens, 24 h, A673 or K562 cells, 24 hours compound treatment, RT-qPCR, read-out: MYB CJ (IC50, decrease in canonical junction mRNA)

| SMILES | IC50 (MYB mRNA; [3]) [nM] | IC50 (HTT mRNA [1]; Homo sapiens) [nM] | IC50 (Target C mRNA; Homo sapiens) [nM] | IC50 (SMN2 mRNA; Homo sapiens) [nM] | IC50 (MYB mRNA; [5]) [nM] | IC50 (HTT mRNA [2]) [nM] | AC50 (MYB mRNA; [4]) [nM] | AC50 (HTT mRNA [2]) [nM] | also measured |
| --- | --- | --- | --- | --- | --- | --- | --- | --- | --- |
| Cc1cn2cc(NC(=O)c3ccc(N4CCC(NC(C)(C)C)C4)c4cc(C)oc34)cc(F)c2n1 (centres unmarked) [Compound 203] | 100 to 1000 | > 10000 | > 10000 | < 100 |  |  |  |  |  |
| Cc1cn2cc(NC(=O)c3ccc(N4CCN(C)CC4)c4cn(C)nc34)cc(F)c2n1 [Compound 207] | < 100 | 100 to 1000 | 1000 to 10000 | < 100 |  |  |  |  |  |
| Cc1cn2cc(NC(=O)c3ccc(C4C[C@@H](C)N[C@@H](C)C4)c4cn(C)nc34)cc(F)c2n1 (some centres unmarked) [Compound 211] | 100 to 1000 | 1000 to 10000 | 1000 to 10000 | < 100 |  |  |  |  |  |
| Cc1cc2c(N3CCNCC3)ccc(C(=O)Nc3cc(F)c4nc(C)oc4c3)c2o1 [Compound 218] | 100 to 1000 | 1000 to 10000 | 1000 to 10000 | < 100 |  |  |  |  |  |
| Cc1nc2c(F)cc(NC(=O)c3ccc(N4CCNCC4)c4cn(C)nc34)cc2o1 [Compound 234] | < 100 | 1000 to 10000 | 1000 to 10000 | < 100 |  |  |  |  |  |
| Cc1cn2cc(NC(=O)c3ccc(N4CCNC5(CC5)C4)c4cn(C)nc34)cc(F)c2n1 [Compound 241] | 100 to 1000 | 100 to 1000 | 1000 to 10000 | < 100 |  |  |  |  |  |
| Cc1cn2cc(NC(=O)c3ccc(N4CCN5CCCC5C4)c4cn(C)nc34)cc(F)c2n1 (centres unmarked) [Compound 250] | < 100 | < 100 | 100 to 1000 | < 100 |  |  |  |  |  |
| Cc1cn2cc(NC(=O)c3ccc(N4CCC(N(C)C)CC4)c4cn(C)nc34)cc(F)c2n1 [Compound 251] | < 100 | 100 to 1000 | 1000 to 10000 | < 100 |  |  |  |  |  |
| Cc1cn2cc(NC(=O)c3ccc(N4CCNC(C)C4)c4cn(C)nc34)cc(Cl)c2n1 (centres unmarked) [Compound 277] | < 100 | 100 to 1000 | 1000 to 10000 | < 100 |  |  |  |  |  |
| Cc1cn2cc(NC(=O)c3ccc(N4C[C@H]5CC[C@@H](C4)N5)c4cn(C)nc34)cc(Cl)c2n1 [Compound 279] | < 100 | 1000 to 10000 | 1000 to 10000 | < 100 |  |  |  |  |  |
| CCn1cc2c(N3CCNCC3)ccc(C(=O)Nc3cc(Cl)c4nc(C)cn4c3)c2n1 [Compound 284] | < 100 | 1000 to 10000 | 1000 to 10000 | < 100 |  |  |  |  |  |
| Cc1cn2cc(NC(=O)c3ccc(N4CCNCC4)c4cn(C)nc34)cc(Cl)c2n1 [Compound 285] |  |  |  |  |  |  |  |  | IC50 (MYB mRNA; Tables 4A/4B, canonical junction qPCR panel, read-out: MYB (IC50, decrease in CJ mRNA, gene panel)): < 100 nM; IC50 (HTT mRNA [1]): 100 to 1000 nM; IC50 (Target C mRNA): 100 to 1000 nM; IC50 (SMN2 mRNA): < 100 nM |
| Cc1cn2cc(NC(=O)c3ccc(N4CC[C@@H](NC5C6COCC65)C4)c4cn(C)nc34)cc(F)c2n1 (some centres unmarked) [Compound 633] |  |  |  |  | 100 to 1000 | 1000 to 10000 | 100 to 1000 | > 10000 |  |
| CCn1cc2c(N3CC[C@@H](NC)C3)cc(O)c(C(=O)Nc3cc(F)c4nc(C)cn4c3)c2n1 [Compound 635] |  |  |  |  | 100 to 1000 | > 10000 | 1000 to 10000 | > 10000 |  |
| CCn1cc2c(N3CC[C@@H](N(C)C)C3)cc(O)c(C(=O)Nc3cc(F)c4nc(C)cn4c3)c2n1 [Compound 637] |  |  |  |  | 100 to 1000 | 1000 to 10000 | 1000 to 10000 | 1000 to 10000 |  |
| Cc1cn2cc(NC(=O)c3ccc(N4CC[C@@H](NC5CC56CCOCC6)C4)c4cn(C)nc34)cc(F)c2n1 (some centres unmarked) [Compound 649] |  |  |  |  | 100 to 1000 | > 10000 | 100 to 1000 | > 10000 |  |
| CCn1cc2c(N3CC[C@@H](NC)C3)cc(OC)c(C(=O)Nc3cc(F)c4nc(C)cn4c3)c2n1 [Compound 653] |  |  |  |  | > 10000 | > 10000 | > 10000 | > 10000 |  |

Now from value to compound, other results behind:

| IC50 (MYB mRNA; [3]) [nM] | IC50 (HTT mRNA [1]; Homo sapiens) [nM] | IC50 (Target C mRNA; Homo sapiens) [nM] | IC50 (SMN2 mRNA; Homo sapiens) [nM] | IC50 (MYB mRNA; [5]) [nM] | IC50 (HTT mRNA [2]) [nM] | SMILES | AC50 (MYB mRNA; [4]) [nM] | AC50 (HTT mRNA [2]) [nM] | also measured |
| --- | --- | --- | --- | --- | --- | --- | --- | --- | --- |
| < 100 | 1000 to 10000 | > 10000 | < 100 |  |  | Cc1cn2cc(NC(=O)c3ccc(N4CC[C@H](NC5(CF)CC5)C4)c4cn(C)nc34)cc(F)c2n1 (single isomer, unassigned) [Compound 449] |  |  |  |
| < 100 | 100 to 1000 | 100 to 1000 | < 100 |  |  | Cc1cn2cc(NC(=O)c3ccc(N4CCNC(C)C4)c4cn(C)nc34)cc(F)c2n1 (centres unmarked) [Compound 228] |  |  |  |
| < 100 | 100 to 1000 | 100 to 1000 | < 100 |  |  | CCNC1CCN(c2ccc(C(=O)Nc3cc(F)c4nc(C)cn4c3)c3nn(C)cc23)CC1 [Compound 252] |  |  |  |
|  |  |  |  | 1000 to 10000 | > 10000 | CNc1nc(NC(=O)c2ccc(N3CC[C@@H](NC)C3)c3cn(C)nc23)cn2cc(C)nc12 [Compound 631, 2-methyl-N-[2-methyl-8-(methylamino)imidazo[1,2-a]pyrazin-6-yl]-4-[(3R)-3-(methylamino)pyrrolidin-1-yl]indazole-7-carboxamide] | 1000 to 10000 | > 10000 |  |
|  |  |  |  | 100 to 1000 | > 10000 | Cc1cn2cc(NC(=O)c3ccc(N4CC[C@@H](NCC5(O)CC5)C4)c4cn(C)nc34)cc(F)c2n1 [Compound 639] | 100 to 1000 | > 10000 |  |
|  |  |  |  | < 100 | 1000 to 10000 | CCC(=O)CN[C@@H]1CCN(c2ccc(C(=O)Nc3cc(F)c4nc(C)cn4c3)c3nn(C)cc23)C1 [Compound 641] | < 100 | 1000 to 10000 |  |
|  |  |  |  | 100 to 1000 | > 10000 | Cc1cn2cc(NC(=O)c3ccc(N4CC[C@@H](NC5(CO)CC5)C4)c4cn(C)nc34)cc(F)c2n1 [Compound 643] | 100 to 1000 | > 10000 |  |
|  |  |  |  | 100 to 1000 | 1000 to 10000 | Cc1cn2cc(NC(=O)c3ccc(N4CC[C@@H](NC5CC5(C)C)C4)c4cn(C)nc34)cc(F)c2n1 (some centres unmarked) [Compound 645] | 100 to 1000 | > 10000 |  |
|  |  |  |  | > 10000 | > 10000 | CN[C@@H]1CCN(c2ccc(C(=O)Nc3nc(OC)c4nc(C)cn4c3F)c3nn(C)cc23)C1 [Compound 651] | > 10000 | > 10000 |  |
